Key:
Test in all cases: TR FRET
Conditions in all cases: compound 0.01 µM
MAP3K2 (human) = MAP3K2 (human) (UniProt Q9Y2U5)
NTRK1 (human) = NTRK1 (human) (UniProt P04629)
STK10 (human) = STK10 (human) (UniProt O94804)
BMX (human) = BMX (human) (UniProt P51813)
[1] = system: RET (human), P07949 [M918T]
TIE1 (human) = TIE1 (human) (UniProt P35590)
HCK (human) = HCK (human) (UniProt P08631)
PDGFRB (human) = PDGFRB (human) (UniProt P09619)
TNK1 (human) = TNK1 (human) (UniProt Q13470)
MAP4K1 (human) = MAP4K1 (human) (UniProt Q92918)
EPHA4 (human) = EPHA4 (human) (UniProt P54764)
CHUK (human) = CHUK (human) (UniProt O15111)
FGR (human) = FGR (human) (UniProt P09769)
CSK (human) = CSK (human) (UniProt P41240)
[2] = system: KIT (human), P10721 [L576P]
Sequence of KIT (human), P10721 [L576P] (P10721 whole entry L576P, looked up): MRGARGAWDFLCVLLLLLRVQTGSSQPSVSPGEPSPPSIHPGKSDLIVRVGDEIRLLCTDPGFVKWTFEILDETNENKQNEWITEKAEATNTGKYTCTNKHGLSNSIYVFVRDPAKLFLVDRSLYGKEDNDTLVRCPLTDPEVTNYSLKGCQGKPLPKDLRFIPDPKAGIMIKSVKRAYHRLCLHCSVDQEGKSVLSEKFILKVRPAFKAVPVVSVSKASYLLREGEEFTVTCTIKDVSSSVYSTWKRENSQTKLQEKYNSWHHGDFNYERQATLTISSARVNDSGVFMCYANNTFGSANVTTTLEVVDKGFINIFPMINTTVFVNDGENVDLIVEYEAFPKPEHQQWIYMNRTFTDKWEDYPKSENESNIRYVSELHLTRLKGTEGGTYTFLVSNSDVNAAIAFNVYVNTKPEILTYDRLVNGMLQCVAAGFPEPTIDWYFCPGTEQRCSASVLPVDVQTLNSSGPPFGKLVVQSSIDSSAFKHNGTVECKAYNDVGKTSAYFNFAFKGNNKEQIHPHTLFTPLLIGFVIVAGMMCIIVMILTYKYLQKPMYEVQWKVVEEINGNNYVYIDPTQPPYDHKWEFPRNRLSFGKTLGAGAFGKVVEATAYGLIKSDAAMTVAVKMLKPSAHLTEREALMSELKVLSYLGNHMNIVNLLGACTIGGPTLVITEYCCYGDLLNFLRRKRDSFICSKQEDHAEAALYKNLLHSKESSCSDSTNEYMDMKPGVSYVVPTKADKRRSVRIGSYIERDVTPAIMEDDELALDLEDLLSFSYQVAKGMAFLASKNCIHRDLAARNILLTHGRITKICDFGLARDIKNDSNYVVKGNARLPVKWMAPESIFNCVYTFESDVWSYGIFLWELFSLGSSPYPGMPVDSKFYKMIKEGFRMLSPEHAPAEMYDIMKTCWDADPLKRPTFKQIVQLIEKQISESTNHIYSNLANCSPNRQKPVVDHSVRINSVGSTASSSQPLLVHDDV

MAP4K2 (human) = MAP4K2 (human) (UniProt Q12851)
SGK3 (human) = SGK3 (human) (UniProt Q96BR1)
[3] = system: EIF2AK4 KD2 (human), Q9P2K8 [S808G]
[4] = system: FLT3 (human), P36888 [R834Q]
ULK1 (human) = ULK1 (human) (UniProt O75385)
[5] = system: FLT3 (human), P36888 [D835H]
MAP3K3 (human) = MAP3K3 (human) (UniProt Q99759)
BRAF (human) = BRAF (human) (UniProt P15056)
CSF1R (human) = CSF1R (human) (UniProt P07333)
FGFR1 (human) = FGFR1 (human) (UniProt P11362)
TNIK (human) = TNIK (human) (UniProt Q9UKE5)
MAP2K5 (human) = MAP2K5 (human) (UniProt Q13163)
NTRK3 (human) = NTRK3 (human) (UniProt Q16288)
EPHA3 (human) = EPHA3 (human) (UniProt P29320)
Sequence of EPHA3 (human) (P29320 whole entry, looked up): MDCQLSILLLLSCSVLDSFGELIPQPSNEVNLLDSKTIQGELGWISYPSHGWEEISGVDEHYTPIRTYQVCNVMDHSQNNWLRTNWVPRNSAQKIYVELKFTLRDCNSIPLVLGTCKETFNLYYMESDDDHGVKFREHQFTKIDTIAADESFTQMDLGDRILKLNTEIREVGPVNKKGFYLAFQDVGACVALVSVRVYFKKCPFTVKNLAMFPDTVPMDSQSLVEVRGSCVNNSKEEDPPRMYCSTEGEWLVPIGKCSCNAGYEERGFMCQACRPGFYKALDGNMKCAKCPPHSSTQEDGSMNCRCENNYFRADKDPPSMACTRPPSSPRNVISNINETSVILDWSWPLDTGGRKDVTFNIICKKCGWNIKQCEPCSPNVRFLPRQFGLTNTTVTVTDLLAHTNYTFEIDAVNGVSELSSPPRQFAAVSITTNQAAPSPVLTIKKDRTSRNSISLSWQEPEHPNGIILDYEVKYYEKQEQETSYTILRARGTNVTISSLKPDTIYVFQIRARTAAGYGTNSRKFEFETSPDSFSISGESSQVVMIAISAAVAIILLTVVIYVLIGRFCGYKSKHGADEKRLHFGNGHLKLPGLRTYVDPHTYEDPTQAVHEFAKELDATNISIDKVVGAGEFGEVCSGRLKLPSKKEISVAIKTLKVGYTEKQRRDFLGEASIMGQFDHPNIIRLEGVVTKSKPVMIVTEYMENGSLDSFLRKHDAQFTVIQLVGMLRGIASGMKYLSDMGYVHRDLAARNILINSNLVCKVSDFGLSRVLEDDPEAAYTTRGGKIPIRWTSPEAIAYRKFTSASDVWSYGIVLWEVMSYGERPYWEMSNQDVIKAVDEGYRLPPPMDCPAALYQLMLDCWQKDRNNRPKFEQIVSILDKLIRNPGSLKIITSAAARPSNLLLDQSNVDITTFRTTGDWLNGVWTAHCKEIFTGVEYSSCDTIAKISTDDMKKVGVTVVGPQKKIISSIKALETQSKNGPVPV

MAP3K7 (human) = MAP3K7 (human) (UniProt O43318)
KIT (human) = KIT (human) (UniProt P10721)
[6] = system: BRAF (human), P15056 [V600E]
CPK1 (P.falciparum) = system: CPK1 (P.falciparum)
[7] = system: FLT3 (human), P36888 [K663Q]
MLTK (human) = MLTK (human) (UniProt Q9NYL2)
MUSK (human) = MUSK (human) (UniProt O15146)
[8] = biological target: JAK3 JH1 catalytic (human) (UniProt P52333)
ANKK1 (human) = ANKK1 (human) (UniProt Q8NFD2)
[9] = system: KIT (human), P10721 [V559D]
LCK (human) = LCK (human) (UniProt P06239)
Sequence of LCK (human) (P06239 whole entry, looked up): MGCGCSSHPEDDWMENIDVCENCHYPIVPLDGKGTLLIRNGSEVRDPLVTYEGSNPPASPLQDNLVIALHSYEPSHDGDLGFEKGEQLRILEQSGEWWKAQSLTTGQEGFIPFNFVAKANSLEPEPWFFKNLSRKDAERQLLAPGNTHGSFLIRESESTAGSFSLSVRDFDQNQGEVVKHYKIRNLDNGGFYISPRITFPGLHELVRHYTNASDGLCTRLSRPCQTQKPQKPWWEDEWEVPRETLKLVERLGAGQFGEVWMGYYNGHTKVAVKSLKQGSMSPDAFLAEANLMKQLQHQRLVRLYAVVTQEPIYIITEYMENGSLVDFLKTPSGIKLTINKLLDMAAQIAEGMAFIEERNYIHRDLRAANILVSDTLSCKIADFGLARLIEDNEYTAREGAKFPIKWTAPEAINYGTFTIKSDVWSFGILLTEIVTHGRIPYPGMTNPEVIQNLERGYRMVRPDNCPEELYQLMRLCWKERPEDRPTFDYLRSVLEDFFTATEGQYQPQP

TAOK3 (human) = TAOK3 (human) (UniProt Q9H2K8)
MAPK14 (human) = MAPK14 (human) (UniProt Q16539)
[10] = system: FLT3 (human), P36888 [D835Y]
PDGFRA (human) = PDGFRA (human) (UniProt P16234)
IKBKB (human) = IKBKB (human) (UniProt O14920)
RET (human) = RET (human) (UniProt P07949)
NTRK2 (human) = NTRK2 (human) (UniProt Q16620)
[11] = system: KIT (human), P10721 [V559D/T670I]
Sequence of KIT (human), P10721 [V559D/T670I] (P10721 whole entry V559D/T670I, looked up): as the sequence (P10721 whole entry L576P, looked up) above, with V559D, P576L, T670I counted along it

DDR2 (human) = DDR2 (human) (UniProt Q16832)
Sequence of DDR2 (human) (Q16832 whole entry, looked up): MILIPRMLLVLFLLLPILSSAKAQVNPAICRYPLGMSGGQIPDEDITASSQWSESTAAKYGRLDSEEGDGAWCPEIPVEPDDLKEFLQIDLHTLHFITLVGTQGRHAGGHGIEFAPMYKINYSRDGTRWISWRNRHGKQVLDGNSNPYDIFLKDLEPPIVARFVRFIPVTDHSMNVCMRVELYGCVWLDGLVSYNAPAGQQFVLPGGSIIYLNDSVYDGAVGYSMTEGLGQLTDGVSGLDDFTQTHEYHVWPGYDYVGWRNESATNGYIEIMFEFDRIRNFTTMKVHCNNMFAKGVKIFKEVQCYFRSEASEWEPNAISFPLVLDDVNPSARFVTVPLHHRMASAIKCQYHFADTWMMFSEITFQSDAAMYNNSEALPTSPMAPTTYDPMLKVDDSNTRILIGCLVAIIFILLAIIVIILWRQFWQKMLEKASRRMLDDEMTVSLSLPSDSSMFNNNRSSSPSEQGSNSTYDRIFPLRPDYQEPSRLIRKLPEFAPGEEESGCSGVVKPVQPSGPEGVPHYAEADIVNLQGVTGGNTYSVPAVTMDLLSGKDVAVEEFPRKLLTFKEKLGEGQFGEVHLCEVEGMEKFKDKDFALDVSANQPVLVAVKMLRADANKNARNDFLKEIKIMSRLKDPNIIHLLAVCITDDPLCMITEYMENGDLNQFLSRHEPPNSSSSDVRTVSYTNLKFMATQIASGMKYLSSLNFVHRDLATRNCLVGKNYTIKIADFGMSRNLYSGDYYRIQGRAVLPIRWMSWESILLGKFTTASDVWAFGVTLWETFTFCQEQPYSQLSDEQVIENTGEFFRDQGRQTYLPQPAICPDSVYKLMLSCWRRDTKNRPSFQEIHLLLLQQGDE

[12] = system: RET (human), P07949 [V804M]
Sequence of RET (human), P07949 [V804M] (P07949 whole entry V804M, looked up): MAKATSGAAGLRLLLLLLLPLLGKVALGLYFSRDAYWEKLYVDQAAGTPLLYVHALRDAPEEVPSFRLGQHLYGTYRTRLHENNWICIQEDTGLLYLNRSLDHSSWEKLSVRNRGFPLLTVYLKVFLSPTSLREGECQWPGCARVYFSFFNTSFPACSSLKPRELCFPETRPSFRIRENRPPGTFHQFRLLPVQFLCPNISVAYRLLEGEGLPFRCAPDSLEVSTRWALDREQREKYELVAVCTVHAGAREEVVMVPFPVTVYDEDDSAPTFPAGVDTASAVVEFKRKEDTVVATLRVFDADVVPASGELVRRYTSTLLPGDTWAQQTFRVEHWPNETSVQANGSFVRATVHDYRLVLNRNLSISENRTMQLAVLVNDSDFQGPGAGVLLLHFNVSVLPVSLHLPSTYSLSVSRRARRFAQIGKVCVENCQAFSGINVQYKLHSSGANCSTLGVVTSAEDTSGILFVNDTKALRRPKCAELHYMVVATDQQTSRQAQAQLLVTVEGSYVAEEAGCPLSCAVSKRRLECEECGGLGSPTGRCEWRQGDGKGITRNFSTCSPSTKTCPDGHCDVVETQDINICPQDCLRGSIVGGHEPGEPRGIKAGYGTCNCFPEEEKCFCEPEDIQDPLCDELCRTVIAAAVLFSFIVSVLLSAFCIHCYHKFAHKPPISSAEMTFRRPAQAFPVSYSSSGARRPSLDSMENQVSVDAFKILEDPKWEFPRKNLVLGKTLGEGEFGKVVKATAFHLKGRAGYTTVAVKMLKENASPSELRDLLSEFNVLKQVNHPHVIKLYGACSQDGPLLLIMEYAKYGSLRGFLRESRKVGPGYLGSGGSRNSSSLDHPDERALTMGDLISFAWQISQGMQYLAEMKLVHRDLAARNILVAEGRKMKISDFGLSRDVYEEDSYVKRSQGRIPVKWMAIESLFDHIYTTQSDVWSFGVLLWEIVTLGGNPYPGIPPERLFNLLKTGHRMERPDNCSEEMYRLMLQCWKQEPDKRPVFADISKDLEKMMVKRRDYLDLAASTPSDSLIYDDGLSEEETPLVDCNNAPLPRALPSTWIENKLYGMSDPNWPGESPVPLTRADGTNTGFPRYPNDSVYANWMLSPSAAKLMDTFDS

DDR1 (human) = DDR1 (human) (UniProt Q08345)
[13] = system: FLT3 (human), P36888 [N841I]
BLK (human) = BLK (human) (UniProt P51451)
SRC (human) = SRC (human) (UniProt P12931)
Sequence of SRC (human) (P12931 whole entry, looked up): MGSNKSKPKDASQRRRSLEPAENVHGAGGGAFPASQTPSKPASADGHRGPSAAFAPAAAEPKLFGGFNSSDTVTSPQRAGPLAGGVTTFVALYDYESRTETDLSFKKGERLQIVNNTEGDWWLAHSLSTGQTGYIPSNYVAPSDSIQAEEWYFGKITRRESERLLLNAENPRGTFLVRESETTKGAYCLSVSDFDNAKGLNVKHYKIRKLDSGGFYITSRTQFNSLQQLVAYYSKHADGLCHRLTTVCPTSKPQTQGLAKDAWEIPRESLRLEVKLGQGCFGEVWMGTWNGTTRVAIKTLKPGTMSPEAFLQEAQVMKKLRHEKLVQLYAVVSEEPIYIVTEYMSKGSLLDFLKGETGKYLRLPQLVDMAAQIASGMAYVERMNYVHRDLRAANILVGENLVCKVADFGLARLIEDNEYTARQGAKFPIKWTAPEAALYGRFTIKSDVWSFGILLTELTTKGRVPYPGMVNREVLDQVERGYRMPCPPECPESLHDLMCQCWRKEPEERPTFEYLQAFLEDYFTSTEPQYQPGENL

EPHA8 (human) = EPHA8 (human) (UniProt P29322)
YES1 (human) = YES1 (human) (UniProt P07947)
LYN (human) = LYN (human) (UniProt P07948)
FLT3 (human) = FLT3 (human) (UniProt P36888)
TEK (human) = TEK (human) (UniProt Q02763)

Sequence of RET (human), P07949 [M918T] (P07949 whole entry M918T, looked up): as the sequence (P07949 whole entry V804M, looked up) above, with M804V, M918T counted along it

**Q.** With Cc1ccc(C(=O)Nc2ccc(CN3CCN(C)CC3)c(C(F)(F)F)c2)cc1C#Cc1cnc2[nH]ncc2c1 as the molecule, how does the inhibition (MAP3K2 (human)) read?
**A.** 63%

**Q.** And the inhibition (NTRK1 (human))?
**A.** 100%

**Q.** What about the inhibition (STK10 (human)) of the same molecule?
**A.** 99.8%

**Q.** And the inhibition (BMX (human))?
**A.** 51%

**Q.** What about the inhibition [1] of the same molecule?
**A.** 90.6%

**Q.** What about the inhibition (TIE1 (human)) of the same molecule?
**A.** 82%

**Q.** What about the inhibition (HCK (human)) of the same molecule?
**A.** 95.8%

**Q.** And the inhibition (PDGFRB (human))?
**A.** 90.5%

**Q.** What about the inhibition (TNK1 (human)) of the same molecule?
**A.** 83%

**Q.** And the inhibition (MAP4K1 (human))?
**A.** 59%

**Q.** And the inhibition (EPHA4 (human))?
**A.** 52%

**Q.** And the inhibition (CHUK (human))?
**A.** 86%

**Q.** What about the inhibition (FGR (human)) of the same molecule?
**A.** 81%

**Q.** And the inhibition (CSK (human))?
**A.** 97.8%

**Q.** And the inhibition [2]?
**A.** 97.8%

**Q.** And the inhibition (MAP4K2 (human))?
**A.** 86%

**Q.** What about the inhibition (SGK3 (human)) of the same molecule?
**A.** 52%

**Q.** What about the inhibition [3] of the same molecule?
**A.** 54%

**Q.** What about the inhibition [4] of the same molecule?
**A.** 77%

**Q.** And the inhibition (ULK1 (human))?
**A.** 51%

**Q.** What about the inhibition [5] of the same molecule?
**A.** 82%

**Q.** What about the inhibition (MAP3K3 (human)) of the same molecule?
**A.** 90%

**Q.** What about the inhibition (BRAF (human)) of the same molecule?
**A.** 78%

**Q.** And the inhibition (CSF1R (human))?
**A.** 97.8%

**Q.** What about the inhibition (FGFR1 (human)) of the same molecule?
**A.** 84%

**Q.** What about the inhibition (TNIK (human)) of the same molecule?
**A.** 81%

**Q.** What about the inhibition (MAP2K5 (human)) of the same molecule?
**A.** 94.8%

**Q.** And the inhibition (NTRK3 (human))?
**A.** 82%

**Q.** And the inhibition (EPHA3 (human))?
**A.** 89%

**Q.** What about the inhibition (MAP3K7 (human)) of the same molecule?
**A.** 96.2%

**Q.** What about the inhibition (KIT (human)) of the same molecule?
**A.** 97.2%

**Q.** What about the inhibition [6] of the same molecule?
**A.** 93.6%

**Q.** What about the inhibition (CPK1 (P.falciparum)) of the same molecule?
**A.** 79%

**Q.** And the inhibition [7]?
**A.** 95%

**Q.** And the inhibition (MLTK (human))?
**A.** 96.2%

**Q.** And the inhibition (MUSK (human))?
**A.** 78%

**Q.** And the inhibition [8]?
**A.** 67%

**Q.** What about the inhibition (ANKK1 (human)) of the same molecule?
**A.** 55%

**Q.** And the inhibition [9]?
**A.** 98.6%

**Q.** What about the inhibition (LCK (human)) of the same molecule?
**A.** 96.8%

**Q.** What about the inhibition (TAOK3 (human)) of the same molecule?
**A.** 92.1%

**Q.** What about the inhibition (MAPK14 (human)) of the same molecule?
**A.** 59%

**Q.** And the inhibition [10]?
**A.** 58%

**Q.** And the inhibition (PDGFRA (human))?
**A.** 76%

**Q.** What about the inhibition (IKBKB (human)) of the same molecule?
**A.** 90%

**Q.** And the inhibition (RET (human))?
**A.** 85%

**Q.** What about the inhibition (NTRK2 (human)) of the same molecule?
**A.** 86%

**Q.** What about the inhibition [11] of the same molecule?
**A.** 91.9%

**Q.** And the inhibition (DDR2 (human))?
**A.** 64%

**Q.** What about the inhibition [12] of the same molecule?
**A.** 65%

**Q.** And the inhibition (DDR1 (human))?
**A.** 99.8%

**Q.** And the inhibition [13]?
**A.** 97.1%

**Q.** And the inhibition (BLK (human))?
**A.** 97.6%

**Q.** What about the inhibition (SRC (human)) of the same molecule?
**A.** 76%

**Q.** What about the inhibition (EPHA8 (human)) of the same molecule?
**A.** 89%

**Q.** And the inhibition (YES1 (human))?
**A.** 70%

**Q.** And the inhibition (LYN (human))?
**A.** 83%

**Q.** What about the inhibition (FLT3 (human)) of the same molecule?
**A.** 97.6%

**Q.** What about the inhibition (TEK (human)) of the same molecule?
**A.** 97.2%
